Source: paper PMC5218480 (PLoS ONE, 2017)

Test system: MV-4-11 cells
Experiment: Gene expression microarray analysis (Affymetrix PrimeView) and GSEA
Assay type: cell-based, human
Set-up: RFU PODN (11730768_x_at) / Fold change /veh PODN (11730768_x_at) / RFU LINC00158 (11744669_a_at) / Fold change /veh LINC00158 (11744669_a_at) / RFU DUSP10 (11751237_a_at) / Fold change /veh DUSP10 (11751237_a_at) / RFU ID3 (11757404_x_at) / Fold change /veh ID3 (11757404_x_at) / RFU PLEKHG5 (11737974_s_at) / Fold change /veh PLEKHG5 (11737974_s_at) / RFU LRRC4B (11730491_at) / Fold change /veh LRRC4B (11730491_at) / RFU GIMAP4 (11747438_a_at) / Fold change /veh GIMAP4 (11747438_a_at) / RFU KRT8 (11758183_x_at) / Fold change /veh KRT8 (11758183_x_at) / RFU CNN1 (11734310_a_at) / Fold change /veh CNN1 (11734310_a_at) / RFU VPS37D (11726825_at) / Fold change /veh VPS37D (11726825_at) / RFU C10orf10 (11716522_x_at) / Fold change /veh C10orf10 (11716522_x_at) / RFU KIR2DL2 /// KIR2DL4 /// KIR2DL5A /// KIR2DL5B /// KIR2DS1 /// KIR2DS2 /// KIR2DS3 /// KIR2DS4 /// KIR3DL3 /// KIR3DL3 /// KIR3DS1 (11738374_at) / Fold change /veh KIR2DL2 /// KIR2DL4 /// KIR2DL5A /// KIR2DL5B /// KIR2DS1 /// KIR2DS2 /// KIR2DS3 /// KIR2DS4 /// KIR3DL3 /// KIR3DL3 /// KIR3DS1 (11738374_at) / RFU C1QL1 (11718748_at) / Fold change /veh C1QL1 (11718748_at) / RFU TMPRSS4 (11747572_a_at) / Fold change /veh TMPRSS4 (11747572_a_at) / RFU HAMP (11756126_x_at) / Fold change /veh HAMP (11756126_x_at) / RFU RNFT2 (11725882_a_at) / Fold change /veh RNFT2 (11725882_a_at) / RFU NR4A2 (11747474_a_at) / Fold change /veh NR4A2 (11747474_a_at) / RFU ABCC12 (11746883_a_at) / Fold change /veh ABCC12 (11746883_a_at) / RFU TMEM136 (11760407_x_at) / Fold change /veh TMEM136 (11760407_x_at) / RFU CLDN22 /// WWC2 (11732394_at) / Fold change /veh CLDN22 /// WWC2 (11732394_at) / RFU HLA-DPB1 (11760878_x_at) / Fold change /veh HLA-DPB1 (11760878_x_at) / RFU SPINT1 (11716480_a_at) / Fold change /veh SPINT1 (11716480_a_at) / RFU GAP43 (11754022_s_at) / Fold change /veh GAP43 (11754022_s_at) / RFU A4GNT (11735810_at) / Fold change /veh A4GNT (11735810_at) / RFU PRB3 (11715151_x_at) / Fold change /veh PRB3 (11715151_x_at) / RFU TUBB4B (11761932_at) / Fold change /veh TUBB4B (11761932_at) / RFU CAPN14 (11732068_a_at) / Fold change /veh CAPN14 (11732068_a_at) / RFU TMCC2 (11721928_a_at) / Fold change /veh TMCC2 (11721928_a_at) / RFU IRGQ (11745062_a_at) / Fold change /veh IRGQ (11745062_a_at) / RFU FAM174B (11720279_a_at) / Fold change /veh FAM174B (11720279_a_at) / RFU TMPRSS4 (11748680_a_at) / Fold change /veh TMPRSS4 (11748680_a_at) / RFU FAM212B (11763350_a_at) / Fold change /veh FAM212B (11763350_a_at) / RFU PLEKHG5 (11743358_a_at) / Fold change /veh PLEKHG5 (11743358_a_at) / RFU ZSCAN30 (11745921_a_at) / Fold change /veh ZSCAN30 (11745921_a_at) / RFU CMKLR1 (11741424_a_at) / Fold change /veh CMKLR1 (11741424_a_at) / RFU LOC101060620 /// MAPK8IP1 (11723275_at) / Fold change /veh LOC101060620 /// MAPK8IP1 (11723275_at) / RFU SPTSSB (11747773_x_at) / Fold change /veh SPTSSB (11747773_x_at) / RFU PRSS12 (11739890_at) / Fold change /veh PRSS12 (11739890_at) / RFU BIN1 (11741810_x_at) / Fold change /veh BIN1 (11741810_x_at) / RFU WNT11 (11732464_a_at) / Fold change /veh WNT11 (11732464_a_at) / RFU C10orf10 (11716521_a_at) / Fold change /veh C10orf10 (11716521_a_at) / RFU C5orf56 (11738089_at) / Fold change /veh C5orf56 (11738089_at) / RFU CYB561 (11721691_x_at) / Fold change /veh CYB561 (11721691_x_at) / RFU ANKRD19P (11752326_a_at) / Fold change /veh ANKRD19P (11752326_a_at) / RFU OR2T12 /// OR2T33 /// OR2T8 (11738714_s_at) / Fold change /veh OR2T12 /// OR2T33 /// OR2T8 (11738714_s_at) / RFU VCAN (11748164_a_at) / Fold change /veh VCAN (11748164_a_at) / RFU JSRP1 (11732532_at) / Fold change /veh JSRP1 (11732532_at) / RFU KRTAP10-11 (11738290_x_at) / Fold change /veh KRTAP10-11 (11738290_x_at) / RFU MYO3A (11730013_a_at) / Fold change /veh MYO3A (11730013_a_at) / RFU EBF3 (11725865_a_at) / Fold change /veh EBF3 (11725865_a_at) / RFU CAMK2N1 (11719241_x_at) / Fold change /veh CAMK2N1 (11719241_x_at) / RFU C5orf56 (11738088_a_at) / Fold change /veh C5orf56 (11738088_a_at) / RFU OLFML3 (11715873_a_at) / Fold change /veh OLFML3 (11715873_a_at) / RFU LOC100653217 /// NTM (11731650_a_at) / Fold change /veh LOC100653217 /// NTM (11731650_a_at) / RFU MAPK11 (11762145_a_at) / Fold change /veh MAPK11 (11762145_a_at) / RFU FIZ1 (11724087_x_at) / Fold change /veh FIZ1 (11724087_x_at) / RFU OASL (11726364_x_at) / Fold change /veh OASL (11726364_x_at) / RFU SOX15 (11748057_x_at) / Fold change /veh SOX15 (11748057_x_at) / RFU CD79A (11719716_a_at) / Fold change /veh CD79A (11719716_a_at) / RFU HIST1H1D (11736915_at) / Fold change /veh HIST1H1D (11736915_at) / RFU CASKIN2 (11723855_a_at) / Fold change /veh CASKIN2 (11723855_a_at) / RFU LOC730098 (11760151_x_at) / Fold change /veh LOC730098 (11760151_x_at) / RFU OR4N2 (11742367_at) / Fold change /veh OR4N2 (11742367_at) / RFU PRRT2 (11749266_a_at) / Fold change /veh PRRT2 (11749266_a_at) / RFU SNX32 (11753110_a_at) / Fold change /veh SNX32 (11753110_a_at) / RFU CDHR5 (11726645_a_at) / Fold change /veh CDHR5 (11726645_a_at) / RFU RCAN1 (11760418_a_at) / Fold change /veh RCAN1 (11760418_a_at) / RFU FAM167A (11723789_a_at) / Fold change /veh FAM167A (11723789_a_at) / RFU FAM26E (11764081_at) / Fold change /veh FAM26E (11764081_at) / RFU ISYNA1 (11749810_s_at) / Fold change /veh ISYNA1 (11749810_s_at) / RFU ACY1 (11761880_at) / Fold change /veh ACY1 (11761880_at) / RFU 11764098_at / Fold change /veh 11764098_at / RFU SAMD14 (11745864_x_at) / Fold change /veh SAMD14 (11745864_x_at) / RFU NPB (11741838_a_at) / Fold change /veh NPB (11741838_a_at) / RFU TMPRSS6 (11731388_a_at) / Fold change /veh TMPRSS6 (11731388_a_at) / RFU KRTAP10-2 (11738614_at) / Fold change /veh KRTAP10-2 (11738614_at) / RFU ARHGAP8 /// PRR5-ARHGAP8 (11727945_x_at) / Fold change /veh ARHGAP8 /// PRR5-ARHGAP8 (11727945_x_at) / RFU KRTAP5-7 /// NADSYN1 (11734609_at) / Fold change /veh KRTAP5-7 /// NADSYN1 (11734609_at) / RFU RASL12 (11751679_a_at) / Fold change /veh RASL12 (11751679_a_at) / RFU CDKN2B (11736163_a_at) / Fold change /veh CDKN2B (11736163_a_at) / RFU PRF1 (11729649_at) / Fold change /veh PRF1 (11729649_at) / RFU, ZNF638 /// ZNF638-IT1 / Fold change vs veh, ZNF638 /// ZNF638-IT1 / RFU, PANK3 / Fold change vs veh, PANK3 / RFU, SH3YL1 / Fold change vs veh, SH3YL1 / RFU, ZEB2 / Fold change vs veh, ZEB2 / RFU, NRIP1 / Fold change vs veh, NRIP1 / RFU, PTTG1IP / Fold change vs veh, PTTG1IP / RFU, CAPN2 / Fold change vs veh, CAPN2 / RFU, MED14 / Fold change vs veh, MED14 / RFU, SNORA58 / Fold change vs veh, SNORA58 / RFU, C1orf63 / Fold change vs veh, C1orf63 / RFU, LRRFIP1 / Fold change vs veh, LRRFIP1 / RFU, NDUFAF7 / Fold change vs veh, NDUFAF7 / RFU, SLC12A2 / Fold change vs veh, SLC12A2 / RFU, IBTK / Fold change vs veh, IBTK / RFU, ESF1 / Fold change vs veh, ESF1 / Fold change vs veh, TMEM50B / RFU, TAOK1 / Fold change vs veh, TAOK1 / RFU, ACBD3 / Fold change vs veh, ACBD3 / RFU, TMA16 / Fold change vs veh, TMA16 / RFU, RWDD3 / Fold change vs veh, RWDD3 / RFU, BCAT1 / Fold change vs veh, BCAT1 / RFU, EDEM3 / Fold change vs veh, EDEM3 / RFU, TMEM33 / Fold change vs veh, TMEM33 / RFU, WDR75 / Fold change vs veh, WDR75 / RFU, AHCTF1 / Fold change vs veh, AHCTF1 / RFU, TFRC / Fold change vs veh, TFRC / RFU, ZDHHC17 / Fold change vs veh, ZDHHC17 / RFU, NOM1 / Fold change vs veh, NOM1 / RFU, ARL8B / Fold change vs veh, ARL8B / RFU, ZBTB11 / Fold change vs veh, ZBTB11 / RFU, TAMM41 / Fold change vs veh, TAMM41 / RFU, KIAA1704 /// LOC100996395 / Fold change vs veh, KIAA1704 /// LOC100996395 / RFU, ING1 / Fold change vs veh, ING1 / RFU, TRMT61B / Fold change vs veh, TRMT61B / RFU, FUBP3 / Fold change vs veh, FUBP3 / RFU, TP53 / Fold change vs veh, TP53 / RFU, TNKS2 / Fold change vs veh, TNKS2 / RFU, ZFP14 / Fold change vs veh, ZFP14 / RFU, ACTR2 / Fold change vs veh, ACTR2 / RFU, PPP3R1 / Fold change vs veh, PPP3R1 / RFU, PIK3R1 / Fold change vs veh, PIK3R1 / RFU, HNRNPA1 / Fold change vs veh, HNRNPA1 / RFU, RNF170 / Fold change vs veh, RNF170 / RFU, ZNF28 / Fold change vs veh, ZNF28 / RFU, RNGTT / Fold change vs veh, RNGTT / RFU, OGT / Fold change vs veh, OGT / RFU, BRD1 / Fold change vs veh, BRD1 / RFU, MARS / Fold change vs veh, MARS / RFU, ZNF655 / Fold change vs veh, ZNF655 / RFU, FAHD1 / Fold change vs veh, FAHD1 / RFU, BDP1 / Fold change vs veh, BDP1 / RFU, LRRCC1 / Fold change vs veh, LRRCC1 / RFU, ARID1A / Fold change vs veh, ARID1A / RFU, ZNF146 / Fold change vs veh, ZNF146 / RFU, ZNF330 / Fold change vs veh, ZNF330 / RFU, GPN3 / Fold change vs veh, GPN3 / RFU, C9orf123 / Fold change vs veh, C9orf123 / RFU, N4BP2L2 / Fold change vs veh, N4BP2L2 / RFU, ARFIP1 / Fold change vs veh, ARFIP1 / RFU, FAM179B / Fold change vs veh, FAM179B / RFU, BCL10 / Fold change vs veh, BCL10 / RFU, UHRF1BP1L / Fold change vs veh, UHRF1BP1L / RFU, BET1 / Fold change vs veh, BET1 / RFU, CNOT2 / Fold change vs veh, CNOT2 / RFU, ZNF268 / Fold change vs veh, ZNF268 / Fold change vs veh, ZNF507 / RFU, DGCR2 / Fold change vs veh, DGCR2 / RFU, WDSUB1 / Fold change vs veh, WDSUB1 / Fold change vs veh, HSP90B1 /// MIR3652 / RFU, ADSS / Fold change vs veh, ADSS / RFU, GK / Fold change vs veh, GK / RFU, ZNF148 / Fold change vs veh, ZNF148 / RFU, TAF9 / Fold change vs veh, TAF9 / RFU, SLC1A5 / Fold change vs veh, SLC1A5 / RFU, SLMO2 / Fold change vs veh, SLMO2 / RFU, ABCC4 / Fold change vs veh, ABCC4 / RFU, LOC101060439 /// RAP1B / Fold change vs veh, LOC101060439 /// RAP1B / RFU, RFX7 / Fold change vs veh, RFX7 / RFU, GTPBP10 / Fold change vs veh, GTPBP10 / RFU, CNEP1R1 / Fold change vs veh, CNEP1R1 / RFU, BIVM-ERCC5 /// ERCC5 / Fold change vs veh, BIVM-ERCC5 /// ERCC5 / RFU, ILF3 / Fold change vs veh, ILF3 / RFU 11762660_at / Fold change /veh 11762660_at / RFU VCAN (11757783_s_at) / Fold change /veh VCAN (11757783_s_at) / RFU DDX43 (11728927_at) / Fold change /veh DDX43 (11728927_at) / RFU KRT8 (11758188_x_at) / Fold change /veh KRT8 (11758188_x_at) / RFU NKD1 (11759106_at) / Fold change /veh NKD1 (11759106_at) / RFU SRD5A1 (11742802_a_at) / Fold change /veh SRD5A1 (11742802_a_at) / RFU TPSAB1 /// TPSB2 (11721975_s_at) / Fold change /veh TPSAB1 /// TPSB2 (11721975_s_at) / RFU GSTM3 (11746129_a_at) / Fold change /veh GSTM3 (11746129_a_at) / RFU IL23R (11737362_x_at) / Fold change /veh IL23R (11737362_x_at) / RFU TMEM51 (11727254_a_at) / Fold change /veh TMEM51 (11727254_a_at) / RFU PIWIL2 (11732686_x_at) / Fold change /veh PIWIL2 (11732686_x_at) / RFU ORM1 (11744905_x_at) / Fold change /veh ORM1 (11744905_x_at) / RFU CCDC152 (11743942_at) / Fold change /veh CCDC152 (11743942_at) / RFU ECM1 (11717891_a_at) / Fold change /veh ECM1 (11717891_a_at) / RFU IL23R (11748794_a_at) / Fold change /veh IL23R (11748794_a_at) / RFU TNFAIP8L3 (11732012_x_at) / Fold change /veh TNFAIP8L3 (11732012_x_at) / RFU MBOAT4 (11741988_at) / Fold change /veh MBOAT4 (11741988_at) / RFU 11764193_at / Fold change /veh 11764193_at / RFU TMEM53 (11763286_at) / Fold change /veh TMEM53 (11763286_at) / RFU MAGEB2 (11727129_at) / Fold change /veh MAGEB2 (11727129_at) / RFU TMEM200A (11744735_a_at) / Fold change /veh TMEM200A (11744735_a_at) / RFU CCDC152 (11751479_a_at) / Fold change /veh CCDC152 (11751479_a_at) / RFU FAM211A (11726209_a_at) / Fold change /veh FAM211A (11726209_a_at) / RFU RGS16 (11746705_a_at) / Fold change /veh RGS16 (11746705_a_at) / RFU VCAN (11755009_s_at) / Fold change /veh VCAN (11755009_s_at) / RFU RHOB (11743442_s_at) / Fold change /veh RHOB (11743442_s_at) / RFU RGS16 (11720943_a_at) / Fold change /veh RGS16 (11720943_a_at) / RFU RGS16 (11720944_at) / Fold change /veh RGS16 (11720944_at) / RFU, VPS4B / Fold change vs veh, VPS4B / RFU, CREB1 / Fold change vs veh, CREB1 / RFU, DNAJC13 / Fold change vs veh, DNAJC13 / RFU, GNAQ / Fold change vs veh, GNAQ / RFU, CDK5R1 / Fold change vs veh, CDK5R1 / RFU, ZRANB3 / Fold change vs veh, ZRANB3 / RFU, CUL4A / Fold change vs veh, CUL4A / RFU, CCNY / Fold change vs veh, CCNY / RFU, UFL1 / Fold change vs veh, UFL1 / RFU, COG3 / Fold change vs veh, COG3 / RFU, DIAPH2 / Fold change vs veh, DIAPH2 / RFU, SKA2 / Fold change vs veh, SKA2 / RFU, AFF3 / Fold change vs veh, AFF3 / RFU, LMF1 / Fold change vs veh, LMF1 / RFU, IPO11 / Fold change vs veh, IPO11 / RFU, DFFB / Fold change vs veh, DFFB / RFU, FOXP1 / Fold change vs veh, FOXP1 / RFU, CARD8 / Fold change vs veh, CARD8 / RFU, STRN3 / Fold change vs veh, STRN3 / RFU, ADK / Fold change vs veh, ADK / RFU, RASSF2 / Fold change vs veh, RASSF2 / RFU, WIPF1 / Fold change vs veh, WIPF1 / RFU, LARP1B / Fold change vs veh, LARP1B / RFU, RASA1 / Fold change vs veh, RASA1 / RFU, RB1 / Fold change vs veh, RB1 / RFU, PPFIA1 / Fold change vs veh, PPFIA1 / RFU, MAT2A / Fold change vs veh, MAT2A / RFU, CCT5 / Fold change vs veh, CCT5 / RFU, WDR92 / Fold change vs veh, WDR92 / RFU, CUX1 / Fold change vs veh, CUX1 / RFU, TTC7A / Fold change vs veh, TTC7A / RFU, TMEM135 / Fold change vs veh, TMEM135 / RFU, DEPTOR / Fold change vs veh, DEPTOR / RFU, CPM / Fold change vs veh, CPM / RFU, DNAJB6 / Fold change vs veh, DNAJB6 / RFU, CACNA2D3 / Fold change vs veh, CACNA2D3 / RFU, DTX4 / Fold change vs veh, DTX4 / RFU, TFCP2 / Fold change vs veh, TFCP2 / RFU, GMCL1 /// GMCL1P1 / Fold change vs veh, GMCL1 /// GMCL1P1 / RFU, AEBP2 / Fold change vs veh, AEBP2 / RFU, SNHG1 /// SNORD22 /// SNORD25 /// SNORD26 /// SNORD27 /// SNORD28 /// SNORD29 /// SNORD31 / Fold change vs veh, SNHG1 /// SNORD22 /// SNORD25 /// SNORD26 /// SNORD27 /// SNORD28 /// SNORD29 /// SNORD31 / Fold change (Aza/veh), C12orf56 (ProbeSet 11735607_a_at) / Fold change (ACY-1035/veh), C12orf56 (ProbeSet 11735607_a_at) / Fold change (Aza/veh), FGFR1OP (ProbeSet 11751329_s_at) / Fold change (ACY-1035/veh), FGFR1OP (ProbeSet 11751329_s_at) / Fold change (Aza/veh), VPS36 (ProbeSet 11739960_a_at) / Fold change (ACY-1035/veh), VPS36 (ProbeSet 11739960_a_at) / RFU SYPL1 (11715823_x_at) / Fold change /veh SYPL1 (11715823_x_at) / RFU IGFBP7 (11715501_s_at) / Fold change /veh IGFBP7 (11715501_s_at) / RFU REEP3 (11722064_at) / Fold change /veh REEP3 (11722064_at) / RFU IGLL1 (11728026_x_at) / Fold change /veh IGLL1 (11728026_x_at): dose or concentration left out as unconfirmed
Details: MV-4-11 cells, 48 hours

Nc1ncn([C@@H]2O[C@H](CO)[C@@H](O)[C@H]2O)c(=O)n1 [azacitidine]
Fold change /veh FAM174B (11720279_a_at): 1.12
